Results published in patent publication US20210392895A1, “NOVEL OXADIAZOLES” (PI INDUSTRIES LIMITED, priority 2018, published 2021).

Test system: Phakopsora pachyrhizi
Test: Phakopsora pachyrhizi test in soybean (greenhouse, preventive activity, disease severity rating)
Format: in vivo
Settings: preventive spray on soybean, compared to the untreated check
Procedure: To test the preventive activity of compounds, healthy young soybean plants, raised in the greenhouse, were sprayed with the active compound solution at the stated application rates inside spray cabinets using hallowcone nozzles. One day after treatment, the plants were inoculated with a suspension containing 2.1×10^6 Phakopsora pachyrhizi spores. The inoculated plants were then kept in the greenhouse chamber at 25° C. temperature and 90% relative humidity for disease expression. A visual assessment of the compound's performance was carried out by rating the disease severity (0-100% scale) on treated plants on 3, 7, 10 and 15 days after application. Efficacy (% control) of the compounds was calculated by comparing the disease rating in the treatment with the one of the untreated control. The treated plants were also assessed for plant compatibility by recording symptoms like necrosis, chlorosis and stunting.

| Compound | pest or weed control at 500 ppm |
| --- | --- |
| O=C(c1ccccc1F)N1CC[C@H](Oc2ccc(-c3noc(C(F)(F)F)n3)cc2F)C1 [Compound 52, (S)-(3-(2-fluoro-4-(5-(trifluoromethyl)-1,2,4-oxadiazol-3-yl)phenoxy)pyrrolidin-1-yl)(2-fluorophenyl)methanone] | > 70% |
| COc1ccc(C(=O)N2CC[C@H](Oc3ccc(-c4noc(C(F)(F)F)n4)cc3F)C2)cc1 [Compound 53, (S)-(3-(2-fluoro-4-(5-(trifluoromethyl)-1,2,4-oxadiazol-3-yl)phenoxy)pyrrolidin-1-yl)(4-methoxyphenyl)methanone] | > 70% |
| O=C(c1cccc(F)c1)N1CC[C@H](Oc2ccc(-c3noc(C(F)(F)F)n3)cc2F)C1 [Compound 54, (S)-(3-(2-fluoro-4-(5-(trifluoromethyl)-1,2,4-oxadiazol-3-yl)phenoxy)pyrrolidin-1-yl)(3-fluorophenyl)methanone] | > 70% |
| O=C(c1cncnc1)N1CC[C@H](Oc2ccc(-c3noc(C(F)(F)F)n3)cc2)C1 [Compound 57, (S)-pyrimidin-5-yl(3-(4-(5-(trifluoromethyl)-1,2,4-oxadiazol-3-yl)phenoxy)pyrrolidin-1-yl)methanone] | > 70% |
| CC(C)(C)OC(=O)N1CC[C@H](Oc2ccc(-c3noc(C(F)(F)F)n3)c(F)c2)C1 [Compound 62, tert-butyl (S)-3-(3-fluoro-4-(5-(trifluoromethyl)-1,2,4-oxadiazol-3-yl)phenoxy)pyrrolidine-1-carboxylate] | > 70% |
| O=C(c1ccccc1F)N1CC[C@H](Oc2ccc(-c3noc(C(F)(F)F)n3)c(F)c2)C1 [Compound 63, (S)-(3-(3-fluoro-4-(5-(trifluoromethyl)-1,2,4-oxadiazol-3-yl)phenoxy)pyrrolidin-1-yl)(2-fluorophenyl)methanone] | > 70% |
| O=C(c1cccc(F)c1)N1CC[C@H](Oc2ccc(-c3noc(C(F)(F)F)n3)c(F)c2)C1 [Compound 64, (S)-(3-(3-fluoro-4-(5-(trifluoromethyl)-1,2,4-oxadiazol-3-yl)phenoxy)pyrrolidin-1-yl)(3-fluorophenyl)methanone] | > 70% |
| O=C(c1cccnc1)N1CC[C@H](Oc2ccc(-c3noc(C(F)(F)F)n3)c(F)c2)C1 [Compound 65, (S)-(3-(3-fluoro-4-(5-(trifluoromethyl)-1,2,4-oxadiazol-3-yl)phenoxy)pyrrolidin-1-yl)(pyridin-3-yl)methanone] | > 70% |
| O=S(=O)(c1ccccc1)N1CC[C@@H](Oc2ccc(-c3noc(C(F)(F)F)n3)cn2)C1 [Compound 71, (R)-3-(6-((1-(phenylsulfonyl)pyrrolidin-3-yl)oxy)pyridin-3-yl)-5-(trifluoromethyl)-1,2,4-oxadiazole] | > 70% |
| O=C(c1ccccc1F)N1CC[C@@H](Oc2ccc(-c3noc(C(F)(F)F)n3)cn2)C1 [Compound 74, (R)-(2-fluorophenyl)(3-((5-(5-(trifluoromethyl)-1,2,4-oxadiazol-3-yl)pyridin-2-yl)oxy)pyrrolidin-1-yl)methanone] | > 70% |
| O=C(c1cccnc1)N1CC[C@@H](Oc2ccc(-c3noc(C(F)(F)F)n3)cn2)C1 [Compound 79, (R)-pyridin-3-yl(3-((5-(5-(trifluoromethyl)-1,2,4-oxadiazol-3-yl)pyridin-2-yl)oxy)pyrrolidin-1-yl)methanone] | > 70% |
| CN(c1ccc(-c2noc(C(F)(F)F)n2)cc1)C1CN(C(=O)OC(C)(C)C)C1 [Compound 80, tert-butyl 3-(methyl(4-(5-(trifluoromethyl)-1,2,4-oxadiazol-3-yl)phenyl)amino)azetidine-1-carboxylate] | > 70% |
| O=C(c1ccccc1)N1CCC(Oc2ccc(-c3noc(C(F)(F)F)n3)cc2)CC1 [Compound 81, phenyl(4-(4-(5-(trifluoromethyl)-1,2,4-oxadiazol-3-yl)phenoxy)piperidin-1-yl)methanone] | > 70% |
| CC(C)(C)OC(=O)N1CC(N(c2ccc(-c3noc(C(F)(F)F)n3)cc2)c2ccc(-c3noc(C(F)(F)F)n3)cc2)C1 [Compound 82, tert-butyl 3-(bis(4-(5-(trifluoromethyl)-1,2,4-oxadiazol-3-yl)phenyl)amino)azetidine-1-carboxylate] | > 70% |
| CC(C)(C)OC(=O)N1CCC(Oc2ccc(-c3noc(C(F)(F)F)n3)cc2)CC1 [Compound 84, tert-butyl 4-(4-(5-(trifluoromethyl)-1,2,4-oxadiazol-3-yl)phenoxy)piperidine-1-carboxylate] | > 70% |
| CN(c1ccc(-c2noc(C(F)(F)F)n2)cc1)C1CN(C(=O)c2cccc(Cl)c2)C1 [Compound 88, (3-chlorophenyl)(3-(methyl(4-(5-(trifluoromethyl)-1,2,4-oxadiazol-3-yl)phenyl)amino)azetidin-1-yl)methanone] | > 70% |

| Compound | pest or weed control at 500 ppm |
| --- | --- |
| CN(c1ccc(-c2noc(C(F)(F)F)n2)cc1)C1CN(C(=O)c2ccc(C(F)(F)F)cc2)C1 [Compound 101, (3-(methyl(4-(5-(trifluoromethyl)-1,2,4-oxadiazol-3-yl)phenyl)amino)azetidin-1-yl)(4-(trifluoromethyl)phenyl)methanone] | > 70% |
| O=C(c1ccc(C(F)(F)F)cc1)N1CCC(Oc2ccc(-c3noc(C(F)(F)F)n3)cc2)CC1 [Compound 102, (4-(4-(5-(trifluoromethyl)-1,2,4-oxadiazol-3-yl)phenoxy)piperidin-1-yl)(4-(trifluoromethyl)phenyl)methanone] | > 70% |
| O=S(=O)(c1ccccc1)N1CC[C@H](Oc2ccc(-c3noc(C(F)(F)F)n3)cn2)C1 [Compound 104, (S)-3-(6-((1-(phenylsulfonyl)pyrrolidin-3-yl)oxy)pyridin-3-yl)-5-(trifluoromethyl)-1,2,4-oxadiazole] | > 70% |
| COc1ccc(S(=O)(=O)N2CC[C@H](Oc3ccc(-c4noc(C(F)(F)F)n4)cn3)C2)cc1 [Compound 105, (S)-3-(6-((1-((4-methoxyphenyl)sulfonyl)pyrrolidin-3-yl)oxy)pyridin-3-yl)-5-(trifluoromethyl)-1,2,4-oxadiazole] | > 70% |
| O=S(=O)(C1CC1)N1CC[C@H](Oc2ccc(-c3noc(C(F)(F)F)n3)cn2)C1 [Compound 106, (S)-3-(6-((1-(cyclopropylsulfonyl)pyrrolidin-3-yl)oxy)pyridin-3-yl)-5-(trifluoromethyl)-1,2,4-oxadiazole] | > 70% |
| Cc1ccc(S(=O)(=O)N2CC[C@H](Oc3ccc(-c4noc(C(F)(F)F)n4)cn3)C2)cc1 [Compound 107, (S)-3-(6-((1-tosylpyrrolidin-3-yl)oxy)pyridin-3-yl)-5-(trifluoromethyl)-1,2,4-oxadiazole] | > 70% |
| O=S(=O)(c1cccc(Cl)c1)N1CC[C@H](Oc2ccc(-c3noc(C(F)(F)F)n3)cn2)C1 [Compound 108, (S)-3-(6-((1-((3-chlorophenyl)sulfonyl)pyrrolidin-3-yl)oxy)pyridin-3-yl)-5-(trifluoromethyl)-1,2,4-oxadiazole] | > 70% |
| O=S(=O)(c1ccc(C(F)(F)F)cc1)N1CC[C@H](Oc2ccc(-c3noc(C(F)(F)F)n3)cn2)C1 [Compound 109, (S)-5-(trifluoromethyl)-3-(6-((1-((4-(trifluoromethyl)phenyl)sulfonyl)pyrrolidin-3-yl)oxy)pyridin-3-yl)-1,2,4-oxadiazole] | > 70% |
| CCCS(=O)(=O)N1CC[C@H](Oc2ccc(-c3noc(C(F)(F)F)n3)cn2)C1 [Compound 110, (S)-3-(6-((1-(propylsulfonyl)pyrrolidin-3-yl)oxy)pyridin-3-yl)-5-(trifluoromethyl)-1,2,4-oxadiazole] | > 70% |
| CS(=O)(=O)N1CC[C@H](Oc2ccc(-c3noc(C(F)(F)F)n3)cn2)C1 [Compound 111, (S)-3-(6-((1-(methylsulfonyl)pyrrolidin-3-yl)oxy)pyridin-3-yl)-5-(trifluoromethyl)-1,2,4-oxadiazole] | > 70% |
| Cc1cccc(S(=O)(=O)N2CC[C@H](Oc3ccc(-c4noc(C(F)(F)F)n4)cn3)C2)c1 [Compound 112, (S)-3-(6-((1-(m-tolylsulfonyl)pyrrolidin-3-yl)oxy)pyridin-3-yl)-5-(trifluoromethyl)-1,2,4-oxadiazole] | > 70% |
| O=S(=O)(N1CC[C@H](Oc2ccc(-c3noc(C(F)(F)F)n3)cc2)C1)C(F)(F)F [Compound 114, (S)-5-(trifluoromethyl)-3-(4-((1-((trifluoromethyl)sulfonyl)pyrrolidin-3-yl)oxy)phenyl)-1,2,4-oxadiazole] | > 70% |
| CCCS(=O)(=O)N1CC[C@H](Oc2ccc(-c3noc(C(F)(F)F)n3)cc2)C1 [Compound 115, (S)-3-(4-((1-(propylsulfonyl)pyrrolidin-3-yl)oxy)phenyl)-5-(trifluoromethyl)-1,2,4-oxadiazole] | > 70% |
| O=S(=O)(c1ccc(Br)cc1)N1CC[C@H](Oc2ccc(-c3noc(C(F)(F)F)n3)cc2)C1 [Compound 116, (S)-3-(4-((1-((4-bromophenyl)sulfonyl)pyrrolidin-3-yl)oxy)phenyl)-5-(trifluoromethyl)-1,2,4-oxadiazole] | > 70% |
| O=S(=O)(c1ccc(Cl)cc1Cl)N1CC[C@H](Oc2ccc(-c3noc(C(F)(F)F)n3)cc2)C1 [Compound 120, (S)-3-(4-((1-((2,4-dichlorophenyl)sulfonyl)pyrrolidin-3-yl)oxy)phenyl)-5-(trifluoromethyl)-1,2,4-oxadiazole] | > 70% |
| N#Cc1ccc(S(=O)(=O)N2CC[C@H](Oc3ccc(-c4noc(C(F)(F)F)n4)cc3)C2)cc1 [Compound 121, (S)-4-((3-(4-(5-(trifluoromethyl)-1,2,4-oxadiazol-3-yl)phenoxy)pyrrolidin-1-yl)sulfonyl)benzonitrile] | > 70% |
